Measured values: ChEMBL document CHEMBL1135310, “Investigation of the PDZ domain ligand binding site using chemically modified peptides” (Bioorg Med Chem Lett, 2002)
Numbered stars: 1 amine (or outer) side, 2 acyl side, 3 side chain; on linkers, the order of the positions; unused ones are H or OH. Square brackets hold non-standard residues; d marks the D form. Peptide text beside a SMILES is read from it. * marks the point of attachment. X2 = C[C@@H](O)[C@H](O)[C@H](N[*:1])C(=O)[*:2]; X1 = O=C([C@@H](N[*:1])[C@@H](O)CCO)[*:2]; NMeW = CN[C@@H](Cc1c[nH]c2ccccc12)C(=O)O; NMeI = CC[C@H](C)[C@H](NC)C(=O)O; NMeT = CN[C@H](C(=O)O)[C@@H](C)O; NMeQ = CN[C@@H](CCC(N)=O)C(=O)O; NMeV = CN[C@H](C(=O)O)C(C)C; Valol = CC(C)[C@@H](CO)N*

Each molecule was assayed against T1, Membrane-associated guanylate kinase, WW and PDZ domain-containing protein 3 (Homo sapiens, UniProt Q5TCQ9) (assay: Dissociation constant for binding to MAGI-3 PDZ2 domain).
T1 sequence (Q5TCQ9 whole entry): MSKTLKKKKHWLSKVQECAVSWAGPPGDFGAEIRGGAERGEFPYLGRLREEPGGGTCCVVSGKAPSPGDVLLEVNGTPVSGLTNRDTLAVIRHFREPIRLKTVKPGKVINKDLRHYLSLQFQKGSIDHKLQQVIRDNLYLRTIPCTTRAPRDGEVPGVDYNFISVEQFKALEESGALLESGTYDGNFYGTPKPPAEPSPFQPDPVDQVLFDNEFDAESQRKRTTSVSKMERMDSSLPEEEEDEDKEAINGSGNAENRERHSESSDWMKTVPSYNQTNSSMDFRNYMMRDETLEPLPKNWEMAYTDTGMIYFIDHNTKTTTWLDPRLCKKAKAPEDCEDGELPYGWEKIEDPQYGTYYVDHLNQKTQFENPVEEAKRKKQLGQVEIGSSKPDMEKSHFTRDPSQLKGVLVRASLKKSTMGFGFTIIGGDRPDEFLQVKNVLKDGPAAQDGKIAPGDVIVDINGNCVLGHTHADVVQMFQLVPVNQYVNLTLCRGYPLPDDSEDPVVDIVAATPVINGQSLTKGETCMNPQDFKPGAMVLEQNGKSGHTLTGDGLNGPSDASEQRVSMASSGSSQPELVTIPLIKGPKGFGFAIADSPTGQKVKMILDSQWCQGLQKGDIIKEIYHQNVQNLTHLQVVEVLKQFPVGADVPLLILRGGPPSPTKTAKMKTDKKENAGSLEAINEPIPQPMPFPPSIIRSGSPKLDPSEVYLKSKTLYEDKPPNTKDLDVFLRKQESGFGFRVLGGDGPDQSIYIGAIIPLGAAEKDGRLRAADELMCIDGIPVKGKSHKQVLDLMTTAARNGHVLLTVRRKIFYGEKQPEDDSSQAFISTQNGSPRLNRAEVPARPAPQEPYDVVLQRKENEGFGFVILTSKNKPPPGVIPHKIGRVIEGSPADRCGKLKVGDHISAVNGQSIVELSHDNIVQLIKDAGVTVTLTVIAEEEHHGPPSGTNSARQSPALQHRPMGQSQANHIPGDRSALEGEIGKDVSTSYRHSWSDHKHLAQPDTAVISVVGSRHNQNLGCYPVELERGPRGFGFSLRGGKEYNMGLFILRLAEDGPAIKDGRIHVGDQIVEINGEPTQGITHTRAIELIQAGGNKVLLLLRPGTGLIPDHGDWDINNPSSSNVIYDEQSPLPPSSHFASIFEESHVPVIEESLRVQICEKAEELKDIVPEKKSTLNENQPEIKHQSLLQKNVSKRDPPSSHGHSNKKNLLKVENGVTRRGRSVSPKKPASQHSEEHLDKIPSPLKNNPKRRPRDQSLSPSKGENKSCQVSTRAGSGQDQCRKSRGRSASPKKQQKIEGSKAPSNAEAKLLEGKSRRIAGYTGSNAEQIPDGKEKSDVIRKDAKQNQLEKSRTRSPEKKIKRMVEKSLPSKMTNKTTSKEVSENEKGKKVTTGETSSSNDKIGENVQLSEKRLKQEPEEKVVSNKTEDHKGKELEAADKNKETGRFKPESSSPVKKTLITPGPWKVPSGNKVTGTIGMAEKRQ
A Kd of 1 µM was found for H-PFDEDQHTQITKV-OH in this work. A Kd of 0.02 µM was found for H-PFDEDQHTQITWV-OH in this work.

What follows are molecules tested against T1, Membrane-associated guanylate kinase, WW and PDZ domain-containing protein 3 (assay: Inhibitory concentration for MAGI-3 PDZ2 domain; ND denotes not detected).
With `CC[C@H](C)[C@H](NC(=O)[C@H](CCC(N)=O)NC(=O)[C@@H](NC(C)=O)[C@@H](C)O)C(=O)N[C@H](C(=O)N[C@@H](Cc1c[nH]c2ccccc12)C(=O)N[C@H](CO)C(C)C)[C@@H](C)O` (Ac-TQITW-Valol) the IC50 was “Not detected”. For `CC[C@H](C)[C@H](NC(=O)[C@H](CCC(N)=O)NC(=O)[C@@H](NC(C)=O)[C@@H](C)O)C(=O)N[C@H](C(=O)N[C@@H](Cc1c[nH]c2ccccc12)C(=O)N[C@H](C(=O)O)C(C)C)[C@@H](O)CCO` (Ac-TQI[X1]WV-OH), the IC50 was “Not detected”. `CC[C@H](C)[C@H](NC(=O)[C@H](CCC(N)=O)NC(=O)[C@@H](NC(C)=O)[C@@H](C)O)C(=O)N[C@H](C(=O)N[C@@H](Cc1c[nH]c2ccccc12)C(=O)N[C@H](C(=O)O)C(C)C)[C@@H](O)[C@@H](C)O` (Ac-TQI[X2]WV-OH) was tested, and the IC50 was “Not detected”. With `CC[C@H](C)[C@H](NC(=O)[C@H](CCC(N)=O)NC(=O)[C@@H](NC(C)=O)[C@@H](C)O)C(=O)N[C@H](C(=O)N[C@@H](Cc1c[nH]c2ccccc12)C(=O)N(C)[C@H](C(=O)O)C(C)C)[C@@H](C)O` (Ac-TQITW[NMeV]-OH) the IC50 was “Not detected”. In the case of `CC[C@H](C)[C@H](NC(=O)[C@H](CCC(N)=O)NC(=O)[C@@H](NC(C)=O)[C@H](C)O)C(=O)NC(C(=O)N[C@@H](Cc1c[nH]c2ccccc12)C(=O)N[C@H](C(=O)O)C(C)C)[C@@H](O)C(C)(C)O` (single isomer, unassigned), the IC50 is reported as “Not detected”. `CCC(O)[C@H](O)C(NC(=O)[C@@H](NC(=O)[C@H](CCC(N)=O)NC(=O)[C@@H](NC(C)=O)[C@@H](C)O)[C@@H](C)CC)C(=O)N[C@@H](Cc1c[nH]c2ccccc12)C(=O)N[C@H](C(=O)O)C(C)C` (single isomer, unassigned) was tested, and the IC50 was “Not detected”.

The molecules below were run against T1, Membrane-associated guanylate kinase, WW and PDZ domain-containing protein 3 (assay: Inhibitory concentration for MAGI-3 PDZ2 domain).
An IC50 of 29 µM was found for `CC[C@H](C)[C@H](NC(=O)[C@H](CCC(N)=O)NC(=O)[C@@H](NC(C)=O)[C@@H](C)O)C(=O)N(C)[C@H](C(=O)N[C@@H](Cc1c[nH]c2ccccc12)C(=O)N[C@H](C(=O)O)C(C)C)[C@@H](C)O` (Ac-TQI[NMeT]WV-OH) in this work. An IC50 of 14.8 µM was found for `CC[C@H](C)[C@H](NC(C)=O)C(=O)N[C@H](C(=O)N[C@@H](Cc1c[nH]c2ccccc12)C(=O)N[C@H](C(=O)O)C(C)C)[C@@H](C)O` (Ac-ITWV-OH) in this work. An IC50 of 42.1 µM was found for `CC[C@H](C)[C@H](NC(=O)[C@H](CCC(N)=O)NC(=O)[C@@H](NC(C)=O)[C@H](C)O)C(=O)N[C@@H](C(=O)N[C@@H](Cc1c[nH]c2ccccc12)C(=O)N[C@H](C(=O)NO)C(C)C)[C@H](C)O` in this work. An IC50 of 20.4 µM was found for `CC[C@H](C)[C@@H](C(=O)N[C@H](C(=O)N[C@@H](Cc1c[nH]c2ccccc12)C(=O)N[C@H](C(=O)O)C(C)C)[C@@H](C)O)N(C)C(=O)[C@H](CCC(N)=O)NC(=O)[C@@H](NC(C)=O)[C@@H](C)O` (Ac-TQ[NMeI]TWV-OH) in this work. An IC50 of 9.8 µM was found for `CC[C@H](C)[C@H](NC(=O)[C@H](CCC(N)=O)N(C)C(=O)[C@@H](NC(C)=O)[C@@H](C)O)C(=O)N[C@H](C(=O)N[C@@H](Cc1c[nH]c2ccccc12)C(=O)N[C@H](C(=O)O)C(C)C)[C@@H](C)O` (Ac-T[NMeQ]ITWV-OH) in this work. An IC50 of 5.2 µM was found for Ac-TQITWV-OH in this work. An IC50 of 5.1 µM was found for `CC[C@H](C)[C@H](NC(=O)[C@H](CCC(N)=O)NC(=O)[C@@H](NC(C)=O)[C@@H](C)O)C(=O)NC(C(=O)N[C@@H](Cc1c[nH]c2ccccc12)C(=O)N[C@H](C(=O)O)C(C)C)[C@@H](O)CO` (single isomer, unassigned) in this work. An IC50 of 14.4 µM was found for H-PFDEDQHTQIAKV-OH [PFDEDQHTQIAKV] in this work. An IC50 of 10.6 µM was found for `CC[C@H](C)[C@H](NC(=O)[C@H](CCC(N)=O)NC(=O)[C@@H](NC(C)=O)[C@@H](C)O)C(=O)N[C@H](C(=O)N(C)[C@@H](Cc1c[nH]c2ccccc12)C(=O)N[C@H](C(=O)O)C(C)C)[C@@H](C)O` (Ac-TQIT[NMeW]V-OH) in this work. An IC50 of 4.5 µM was found for Ac-QITWV-OH in this work. An IC50 of 0.74 µM was found for H-PFDEDQHTQITWV-OH in this work. An IC50 of 34 µM was found for `CC[C@H](C)[C@H](NC(=O)[C@H](CCC(N)=O)NC(=O)[C@@H](NC(C)=O)[C@H](C)O)C(=O)NC(C(=O)N[C@@H](Cc1cn(C)c2ccccc12)C(=O)N[C@H](C(=O)O)C(C)C)[C@H](C)O` (single isomer, unassigned) in this work. An IC50 of 4.1 µM was found for Ac-HTQITWV-OH in this work.
